# Tests used:
# [1] = system: Hepatitis C virus; experiment: Antiviral activity against HCV genotype 1b infected in HuH7 cells by SEAP reporter gene assay; type: functional, organism-based, Hepacivirus hominis; conditions: Huh-7
# [2] = system: Hepatitis C virus subtype 1a; experiment: Resistance ratio of IC50 for HCV genotype 1a NS5B polymerase M423T mutant to IC50 for HCV genotype 1a wildtype NS5B polymerase
# [3] = Inhibition of HCV genotype 2a NS5B polymerase assessed as inhibition of [3H]UTP incorporation after 2 hrs by scintillation counting; set-up: species or system Hepatitis C virus subtype 2a
# [4] = system: Hepatitis C virus subtype 1a; experiment: Resistance ratio of IC50 for HCV genotype 1a NS5B polymerase C316Y mutant to IC50 for HCV genotype 1a wildtype NS5B polymerase
# [5] = Inhibition of HCV genotype 2b NS5B polymerase assessed as inhibition of [3H]UTP incorporation after 2 hrs by scintillation counting; set-up: species or system Hepatitis C virus subtype 2b
# [6] = system: Hepatitis C virus subtype 1a; experiment: Resistance ratio of IC50 for HCV genotype 1a NS5B polymerase P495A mutant to IC50 for HCV genotype 1a wildtype NS5B polymerase
# [7] = Inhibition of HCV genotype 1b BK recombinant NS5B polymerase expressed in Escherichia coli DH5alpha assessed as inhibition of [3H]UTP incorporation after 2 hrs by scintillation counting; set-up: species or system Hepatitis C virus (isolate BK)
# [8] = Cytotoxicity against human HuH7 cells by MTT assay; type: cell-based, Huh-7; conditions: read-out: TD50 (the source's name)
# [9] = system: Hepatitis C virus subtype 1a; experiment: Resistance ratio of IC50 for HCV genotype 1a NS5B polymerase T448Y mutant to IC50 for HCV genotype 1a wildtype NS5B polymerase
# [10] = system: Hepatitis C virus subtype 1a; experiment: Resistance ratio of IC50 for HCV genotype 1a NS5B polymerase M414T mutant to IC50 for HCV genotype 1a wildtype NS5B polymerase
# [11] = Inhibition of HCV genotype 1a H77 recombinant NS5B polymerase expressed in Escherichia coli DH5alpha assessed as inhibition of [3H]UTP incorporation after 2 hrs by scintillation counting; set-up: species or system Hepatitis C virus (isolate H77)
# [12] = system: Hepatitis C virus; experiment: Inhibition of HCV genotype 1b patient isolate recombinant NS5B polymerase expressed in Escherichia coli DH5alpha assessed as inhibition of [3H]UTP incorporation after 2 hrs by scintillation counting; set-up: species or system Hepatitis C virus subtype 1b
# [13] = Inhibition of HCV genotype 3a NS5B polymerase assessed as inhibition of [3H]UTP incorporation after 2 hrs by scintillation counting; set-up: species or system Hepatitis C virus subtype 3a
smiles,measurement,setting,value
COc1cc([N+](=O)[O-])c(N2CCC(=O)NC2=O)cc1C(C)(C)C,EC50,[1],0.84 µM
same,Ratio IC50,[2],5
same,IC50,[3],> 200 µM
same,Ratio IC50,[4],> 100
same,IC50,[5],> 200 µM
same,Ratio IC50,[6],5
same,IC50,[7],0.36 µM
same,CC50,[8],> 50 µM
same,Ratio IC50,[9],41
same,Ratio IC50,[10],24
same,IC50,[11],0.58 µM
same,IC50,[12],0.4 µM
same,IC50,[13],> 200 µM
CC(C)(C)c1cccc(N2CCC(=O)NC2=O)c1,IC50,[12],47 µM
COc1c(Br)cc(N2CCC(=O)NC2=O)cc1C(C)(C)C,IC50,[12],7.4 µM
COc1c(Br)cc(N2CCC(=O)N(C)C2=O)cc1C(C)(C)C,IC50,[12],> 200 µM
CC(C)(C)c1cc(N2CCC(=O)NC2=O)ccc1O,IC50,[12],7.6 µM
COc1cc(NC(C)=O)c(N2CCC(=O)NC2=O)cc1C(C)(C)C,IC50,[12],6.5 µM
COc1cc(N)c(N2CCC(=O)NC2=O)cc1C(C)(C)C,IC50,[12],1.7 µM
O=C1CCN(c2cccc(C(F)(F)F)c2)C(=O)N1,IC50,[12],> 200 µM
COc1cc(N(C)C)c(N2CCC(=O)NC2=O)cc1C(C)(C)C,IC50,[12],6.7 µM
COc1ccc(N2CCC(=O)NC2=O)cc1C(C)(C)C,IC50,[12],6.4 µM
